Experimental data as given in US7691858B2, “Kinase inhibitors and methods of use thereof” (TargeGen, Inc., priority 2006, dated 2010).
Counter-ions that a name gives are not always drawn. One block for each compound: values may come before it.

Legend:
VEGF-induced edema = experiment: Miles assay, VEGF as agonist; assay type: in vivo, Sprague-Dawley rats; settings: vehicle 12; for Score (scale of 0-12): VEGF 200 ng/site, lower score = greater anti-edema activity; for Score with VEGF as agonist (scale of 0-12): 1.5 mg/kg, VEGF 200 ng/injection site
Procedure: A rodent model of vascular edema, the Miles assay, was used to screen compounds for their ability to inhibit VEGF-induced edema. […] Sprague-Dawley rats were first injected IV with vehicle alone or test agent, followed by IV injection of Evans blue dye, followed by intradermal injections of saline and VEGF (200 ng/injection site) along both shaved flanks.

[1] = target: T1, human p120γ subunit of PI3K (Homo sapiens, UniProt P48736); experiment: PI3K enzymatic activity at two concentrations (Upstate Group); assay type: biochemical; settings: 100% = no inhibition, 0% = complete inhibition
T1 construct: purchased Upstate Group, Charlottesville, Va; (contract assay)
Procedure: The ability of compounds to inhibit the activity of PI3K kinase was determined using biochemical assays. In a first assay, compounds were tested at two concentrations (0.5 and 5 μM) for their ability to inhibit enzymatic activity of the human p120γ subunit of PI3K (the assay being performed under contract by Upstate Group, Charlottesville, Va.).

myocardial infarct = experiment: Rodent model of acute myocardial infarct (LAD occlusion/reperfusion); assay type: in vivo, Sprague-Dawley rats
Procedure: A rodent model of acute myocardial infarct, in which the proximal left anterior descending coronary artery (LAD) is occluded for 60 min followed by reperfusion, was used to determine whether test agents reduced infarct size at 24 hours.
Myocardial infarcts were created in Sprague-Dawley rats (200-300 g body weight) by a 60 min occlusion of the LAD followed by LAD reperfusion. […] At 24 hr post-treatment, the ischemic zone (area at-risk, AAR) was delineated by re-ligation of the LAD followed by IV injection of alkali blue dye, after which hearts were sectioned along the short axis and stained using triphenyltetrazolium chloride to delineate viable from infarcted myocardium. Photographic images were then analyzed using morphometric software to calculate infarct area as a percent of the at-risk area.
Rodent MI model: All animal studies followed current “NIH Guidelines for the Use of Laboratory Animals” and were performed according to IACUC-approved protocols. Sprague-Dawley rats (275-300 g) were anesthetized using inhaled isoflurane after which chest walls were shaved and swabbed with iodine. Animals were then intubated and maintained on 2% isoflurane (delivered in 30% O2/70% N2), with optimal respiratory rate and stroke volumes set by a volume-controlled safety ventilator (Inspira Advanced Safety Ventilator; Harvard Apparatus, Holliston, Mass.). Body temperatures were maintained at 35-37° C. using heating pads and five-lead electrocardiograms established. For each animal, a left thoracotomy was performed at the third intercostal space, the heart was exposed and a suture snare tightened around the LAD at the point it appeared from beneath the left atrium. Ischemia was confirmed from blanching of the left ventricle (LV) as well as changes in ECG patterns. After the desired period of occlusion (60 min in the standard model), the suture snare was loosened to allow complete reperfusion (but retained in place using shallow sutures) and the chest closed in layers. […].
For infarct size determination, LAD occlusion was repeated on each animal 24 hr after the initial occlusion. The ischemic zone (area-at-risk or AAR) was then delineated by i.v. injection of Evans blue dye (5 ml of a 10% saline solution containing 100 U/ml sodium heparin). The heart was explanted, atria and right ventricle trimmed free, and the LV (septal and free walls) frozen at −20° C. to induce rigor. After thawing on ice, the LV was subdivided into six 2 mm thick sections along the short axis using a metal form to guide dissection. Heart sections were stained for 20 min in 37° C. triphenyltetrazolium chloride (TTC, 2% in 0.04 M K2HPO4/0.17 M sucrose) to delineate viable from infarcted myocardium, fixed for 20 min in 10% formalin, then rinsed in saline. For each section, photographs were taken of both anterior and posterior surfaces and these images analyzed (by personnel blinded as to treatment identity) using a morphometric software package (Image Pro Plus; Media Cybernetics, Silver Spring, Md.). The following areas were calculated, based on their differing pixel densities: non-ischemic zone (Evans blue-stained), viable-but-ischemic zone (free of Evans blue but TTC-stained), and infarct-within-ischemic zone (free of both Evans blue and TTC stain). Area values for anterior and posterior views were averaged, and these values used to calculate the following AAR=Viable-but-ischemic Area+Infarct Area Equation 1 Total LV Area=AAR+Non-ischemic Area Equation 2

cerebral infarct = experiment: Rodent model of cerebral stroke (permanent middle cerebral artery occlusion); assay type: in vivo, mice; settings: 1 mg/kg BW IV 60 min after ligation; for % Infarct reduction: vs vehicle; for Infarct area in mm^3 (mean ± SEM): 24 hours
Procedure: A rodent model of cerebral stroke, in which the middle cerebral artery is permanently occluded, was used to determine whether test agents reduced infarct size at 24 hours.
Cerebral strokes were created in mice by permanent ligation of the middle cerebral artery using a cauterizing tool, followed 60 min later by IV injection of either vehicle alone (50% PEG400 in water) or test agents (at 1 mg/kg BW). Twenty four hours later, brains were sectioned and stained using triphenyltetrazolium chloride to delineate viable from infarcted tissue. Photographic images were then analyzed using morphometric software to calculate infarct area.

histamine-induced edema = experiment: Miles assay, histamine as agonist; assay type: in vivo, Sprague-Dawley rats; settings: 1.5 mg/kg; histamine 10 μg/injection site; vehicle 12
Procedure: Sprague-Dawley rats were first injected IV with vehicle alone or test agent, followed by IV injection of Evans blue dye, followed by intradermal injections of saline and VEGF (200 ng/injection site) along both shaved flanks. […] The ability of test agents to influence edema induced by agonists other than VEGF was also tested. Compounds cited in this application inhibited edema formation induced using histamine as an agonist, for example, as shown below. The ability of test agent to influence vascular edema was tested as above, except that the ability to block edema was tested using either VEGF or histamine as the agonist (200 ng and 10 μg/injection site, respectively).

[2] = 1.5 mg/kg BW IV at 90 min post-reperfusion, 24 hr
[3] = 1.5 mg/kg BW IV at 90 min post-reperfusion, vs vehicle

T1 sequence (P48736 whole entry): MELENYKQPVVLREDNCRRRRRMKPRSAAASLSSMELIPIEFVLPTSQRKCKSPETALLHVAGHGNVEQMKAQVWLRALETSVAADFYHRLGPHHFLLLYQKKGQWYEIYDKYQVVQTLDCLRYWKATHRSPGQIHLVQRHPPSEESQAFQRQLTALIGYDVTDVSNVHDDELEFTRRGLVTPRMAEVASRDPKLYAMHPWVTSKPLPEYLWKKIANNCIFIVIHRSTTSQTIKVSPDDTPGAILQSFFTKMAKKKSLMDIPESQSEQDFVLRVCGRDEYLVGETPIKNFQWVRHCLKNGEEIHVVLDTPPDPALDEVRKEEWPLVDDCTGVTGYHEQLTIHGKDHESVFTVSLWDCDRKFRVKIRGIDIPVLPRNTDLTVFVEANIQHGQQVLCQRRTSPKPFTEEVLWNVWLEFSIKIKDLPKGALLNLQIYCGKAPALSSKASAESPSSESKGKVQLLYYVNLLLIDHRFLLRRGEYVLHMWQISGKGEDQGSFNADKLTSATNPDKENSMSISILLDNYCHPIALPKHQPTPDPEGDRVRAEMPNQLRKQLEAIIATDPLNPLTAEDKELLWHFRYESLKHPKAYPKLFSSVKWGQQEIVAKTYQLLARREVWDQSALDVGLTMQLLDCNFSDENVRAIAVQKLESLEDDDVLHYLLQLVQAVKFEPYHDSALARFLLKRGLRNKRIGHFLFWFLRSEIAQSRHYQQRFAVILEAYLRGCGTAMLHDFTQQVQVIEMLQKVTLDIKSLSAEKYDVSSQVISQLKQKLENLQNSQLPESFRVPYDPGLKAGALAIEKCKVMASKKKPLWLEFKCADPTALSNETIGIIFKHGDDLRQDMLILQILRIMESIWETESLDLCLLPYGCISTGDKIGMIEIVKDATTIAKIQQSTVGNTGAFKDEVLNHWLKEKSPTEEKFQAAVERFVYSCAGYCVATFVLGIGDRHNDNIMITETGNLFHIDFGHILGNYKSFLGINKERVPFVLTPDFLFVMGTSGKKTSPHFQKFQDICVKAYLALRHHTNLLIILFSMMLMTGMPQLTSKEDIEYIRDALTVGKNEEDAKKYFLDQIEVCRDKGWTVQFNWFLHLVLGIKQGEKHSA

Compound: Nc1cncc2nc(-c3ccc(O)c(O)c3)c(-c3ccc(O)c(O)c3)nc12 [2,3-(3,4-Dihydroxyphenyl)-pyrido[3,4-b]pyrazin-8-ylamine]
Score (scale of 0-12) (VEGF-induced edema; 0.01 mg/kg IV): 6

Percent Control Value at 0.5 μM ([1]; 0.5 μM): 101%
Percent Control Value at 5 μM ([1]; 5 μM): 90%
Compound: Nc1cncc2nc(-c3cccc(O)c3)c(-c3cccc(O)c3)nc12 [3,3′-(8-aminopyrido[3,4-]pyrazine-2,3-diyl)diphenol]

Compound: O=C(Nc1cc2ccccc2[nH]1)c1cc(O)c(O)c(O)c1 [3,4,5-Trihydroxy-N-(1H-indol-2-yl)-benzamide]
Score with VEGF as agonist (scale of 0-12) (VEGF-induced edema): 5

Compound: O=C(Nc1ccccc1-c1cc2ccccc2[nH]1)c1cc(O)c(O)c(O)c1 [3,4,5-Trihydroxy-N-[2-(1H-indol-2-yl)-phenyl]-benzamide]
Score with VEGF as agonist (scale of 0-12) (VEGF-induced edema): 4

Compound: O=C(CCc1ccc(O)cc1)Nc1ccccc1-c1cc2ccccc2[nH]1 [3-(4-Hydroxy-phenyl)-N-[2-(1H-indol-2-yl)-phenyl]-propionamide]
Score (scale of 0-12) (VEGF-induced edema; 1.5 mg/kg IV): 2

Compound: Cl.Cl.Nc1nc(N)c2nc(-c3cccc(O)c3)c(-c3cccc(O)c3)nc2n1 [3-[2,4-diamino-6-(3-hydroxyphenyl)pteridin-7-yl] phenol dihydrochloride salt]
Score (scale of 0-12) (VEGF-induced edema; 0.01 mg/kg IV): 3
Score (scale of 0-12) (VEGF-induced edema; 0.1 mg/kg IV): 4
Score (scale of 0-12) (VEGF-induced edema; 1 mg/kg IV): 4
Infarct (% AAR, mean ± SEM) (myocardial infarct; 0.1 mg/kg BW IV at 90 min post-reperfusion, 24 hr): 37.7 ± 5.8 % AAR
% Infarct reduction (myocardial infarct; 0.1 mg/kg BW IV at 90 min post-reperfusion, vs vehicle): 30%
% Infarct reduction (myocardial infarct; 0.1 mg/kg, administration 60 and 240 min post-occlusion): 55%
Infarct (% AAR, mean ± SEM) (myocardial infarct; 0.1 mg/kg, administration 60 and 240 min post-occlusion, vehicle 54.0 ± 2.9): 24.2 ± 4.9 % AAR
% Infarct reduction (myocardial infarct; 0.1 mg/kg, administration 60 min post-occlusion): 60%
Infarct (% AAR, mean ± SEM) (myocardial infarct; 0.1 mg/kg, administration 60 min post-occlusion, vehicle 54.0 ± 2.9): 21.6 ± 5.7 % AAR
% Infarct reduction (myocardial infarct; 0.1 mg/kg, administration 120 min post-occlusion): 65%
Infarct (% AAR, mean ± SEM) (myocardial infarct; 0.1 mg/kg, administration 120 min post-occlusion, vehicle 54.0 ± 2.9): 18.8 ± 5.6 % AAR
% Infarct reduction (myocardial infarct; 0.1 mg/kg, administration 240 min post-occlusion): 65%
Infarct (% AAR, mean ± SEM) (myocardial infarct; 0.1 mg/kg, administration 240 min post-occlusion, vehicle 54.0 ± 2.9): 19.1 ± 4.0 % AAR
Infarct (% AAR, mean ± SEM) (myocardial infarct; 1.0 mg/kg BW IV at 90 min post-reperfusion, 24 hr): 46.4 ± 2.6 % AAR
% Infarct reduction (myocardial infarct; 1.0 mg/kg BW IV at 90 min post-reperfusion, vs vehicle): Not significant

Compound: O=C(Nc1ccccc1-c1cc2ccccc2[nH]1)c1cccnc1C(=O)O [3-[2-(1H-Indol-2-yl)-phenylcarbamoyl]-pyridine-2-carboxylic acid]
Score (scale of 0-12) (VEGF-induced edema; 0.5 mg/kg IV): 5

Compound: Nc1nc(N)c2nc(-c3ccc(O)cc3)cnc2n1 [4-(2,4-Diamino-pteridin-6-yl)-phenol (sulfate salt)]
Score (scale of 0-12) (VEGF-induced edema; 5 mg/kg IV): 2

Compound: Cl.Nc1ncnc2nc(-c3ccc(O)c(O)c3)c(-c3ccc(O)c(O)c3)nc12 [4-[4-amino-6-(3,4-dihydroxyphenyl)pteridin-7-yl]benzene-1,2-diol chloride salt]
Score (scale of 0-12) (VEGF-induced edema; 0.01 mg/kg IV): 6
Score (scale of 0-12) (VEGF-induced edema; 0.1 mg/kg IV): 3
Score (scale of 0-12) (VEGF-induced edema; 1 mg/kg IV): 5

Compound: Nc1nc(N)c2nc(CNCc3ccc(O)c(O)c3)cnc2n1 [4-{[(2,4-Diamino-pteridin-6-ylmethyl)-amino]-methyl}-benzene-1,2-diol]
Score (scale of 0-12) (VEGF-induced edema; 5 mg/kg IV): 4

Compound: Nc1ncnc2nc(-c3ccccn3)c(-c3ccccn3)nc12 [6,7-Di-pyridin-2-yl-pteridin-4-ylamine]
% Infarct reduction (cerebral infarct): Not significant

Compound: Oc1ncnc2nc(-c3ccccc3)c(-c3ccccc3)nc12 [6,7-Diphenyl-pteridin-4-ol]
Score with VEGF as agonist (scale of 0-12) (VEGF-induced edema): 3

Compound: Cl.Nc1nc(N)c2nc(-c3ccc(O)c(O)c3)c(-c3ccc(O)c(O)c3)nc2n1 [6,7-bis(3,4-dihydroxyphenyl)-pteridine-2,4,-diamine, hydrochloride salt]
Infarct (% AAR, mean ± SEM) (myocardial infarct; [2]): 36.3 ± 6.3 % AAR
% Infarct reduction (myocardial infarct; [3]): 33%

Compound: Nc1ncnc2nc(-c3ccc(O)cc3)c(-c3ccc(O)cc3)nc12.O=S(=O)(O)O [6,7-bis(4-hydroxyphenyl)-pteridin-4-ylamine sulfate salt]
Score with VEGF as agonist (scale of 0-12) (VEGF-induced edema): 4
Infarct (% AAR, mean ± SEM) (myocardial infarct; [2]): 60.6 ± 1.8 % AAR
% Infarct reduction (myocardial infarct; [3]): 20%
Infarct area in mm^3 (mean ± SEM) (cerebral infarct): 18.3 ± 2.6 mm^3
% Infarct reduction (cerebral infarct): 53%
Score with histamine as agonist (scale of 0-12) (histamine-induced edema): 3

Compound: Nc1nc(N)c2nc(CNCc3ccccn3)cnc2n1 [6-{[(Pyridin-2-ylmethyl)-amino]-methyl}-pteridine-2,4-diamine]
Score (scale of 0-12) (VEGF-induced edema; 0.1 mg/kg IV): 4

Compound: Cc1ccc(-c2nn(C(C)(C)C)c3ncnc(N)c23)cc1 [PP1, reference compound]
Infarct area in mm^3 (mean ± SEM) (cerebral infarct): 35.4 ± 6.4 mm^3
% Infarct reduction (cerebral infarct): Not significant

Compound: CN(C)S(=O)(=O)c1ccc2c(c1)/C(=C/c1cc3c([nH]1)CCCC3)C(=O)N2 [SU6656, reference compound]
% Infarct reduction (cerebral infarct): Not significant
